Laboratory results published in patent US8389524B2, “Tricyclic nitrogen containing compounds as antibacterial agents” (Glaxo Group Limited, priority 2007, dated 2013).
Where a name gives a salt, the structure may show the parent alone.

What was measured:
[1] = Antimicrobial Activity Assay: whole-cell antimicrobial activity by broth microdilution (CLSI M7-A7), MIC; assay type: cell-based, Gram-positive and Gram-negative organisms; settings: against a strain of at least one of the organisms listed; tested in at least one exemplified salt or free base form
Experimental: Whole-cell antimicrobial activity was determined by broth microdilution using the Clinical and Laboratory Standards Institute (CLSI) recommended procedure, Document M7-A7, “Methods for Dilution Susceptibility Tests for Bacteria that Grow Aerobically”. The compounds were tested in serial two-fold dilutions ranging from 0.016 to 16 mcg/ml.
The minimum inhibitory concentration (MIC) was determined as the lowest concentration of compound that inhibited visible growth. A mirror reader was used to assist in determining the MIC endpoint.
Compounds were evaluated against Gram-positive organisms, selected from Staphylococcus aureus, Streptococcus pneumoniae, Streptococcus pyogenes, Enterococcus faecalis and Enterococcus faecium.
In addition, compounds were evaluated against Gram-negative organisms selected from Haemophilus influenzae, Moraxella catarrhalis, Escherichia coli, Pseudomonas aeruginosa, Proteus mirabilis, Enterobacter cloacae, Enterobacter aerogenes, Klebsiella pneumoniae and Stenotrophomonas maltophilia.

[2] = tested on: Mycobacterium tuberculosis H37Rv; assay: Mycobacterium tuberculosis H37Rv Inhibition Assay (resazurin, MIC); assay type: cell-based; settings: ATCC 25618 / H37Rv, 144 h, read-out: MIC value, H37Rv strain (ATCC25618), Middlebrook 7H9+ADC, six days at 37° C., resazurin fluorescence after 48 hours

Row | Structure (SMILES) | MIC [1] [mg/L] | MIC [2] [mg/L]
1 | O=c1ccc2ccc(=O)n3c2n1C[C@H]3CN1CCC(NCc2cc3c(cn2)COC3)CC1 [Example 9, (1R)-1-({4-[(1,3-Dihydrofuro[3,4-c]pyridin-6-ylmethyl)amino]-1-piperidinyl}methyl)-1,2-dihydro-4H,1H-imidazo[1,2,3-ij]-1,8-naphthyridine-4,9-dione hydrochloride] | ≤ 4 | –
2 | O=c1ccc2ccc(=O)n3c2n1CC3CN1CCC(NCc2cc3c(cn2)OCS3)CC1 (stereo not shown) [Example 2, 1-({4-[([1,3]Oxathiolo[5,4-c]pyridin-6-ylmethyl)amino]-1-piperidinyl}methyl)-1,2-dihydro-4H,9H-imidazo[1,2,3-ij]-1,8-naphthyridine-4,9-dione hydrochloride] | – | < 2
3 | N#Cc1cc(CNC2CCN(C[C@@H]3Cn4c(=O)cnc5ccc(=O)n3c54)CC2)cc2c1OCCO2 [Example 56, 7-{[(1-{[(1R)-3,8-Dioxo-1,2-dihydro-3H,8H-2a,5,8a-triazaacenaphthylen-1-yl]methyl}-4-piperidinyl)amino]methyl}-2,3-dihydro-1,4-benzodioxin-5-carbonitrile hydrochloride] | – | < 2
4 | O=c1ccc2ncc(=O)n3c2n1C[C@H]3CN1CCC(NCc2cc3c(cn2)OCS3)CC1 [Example 16A, (2R)-2-({4-[([1,3]Oxathiolo[5,4-c]pyridin-6-ylmethyl)amino]-1-piperidinyl}methyl)-1,2-dihydro-3H,8H-2a,5,8a-triazaacenaphthylene-3,8-dione hydrochloride] | – | < 2
